Experimental data: ChEMBL document CHEMBL1141848, “Prenylagaramides A and B, new cyclic peptides from two strains of oscillatoria agardhii” (J Nat Prod, 1999)
The source made the active and inactive calls. Residues, ends and D or L forms follow the SMILES beside them. *: point of attachment. Prenyl = CC(C)=CC*

Assays:
[1] = Inhibition of trypsin
[2] = target: Prothrombin (Homo sapiens) (UniProt P00734); assay: Inhibition of thrombin
[3] = target: Plasminogen (Homo sapiens) (UniProt P00747); assay: Inhibition of plasmin
[4] = Inhibition of chymotrypsin
[5] = Inhibition of elastase
[6] = target: Cytosol aminopeptidase (Homo sapiens) (UniProt P28838); assay: Inhibition of leucine amino peptidase
Papain (Carica papaya) = target: T1, Papain (Carica papaya) (UniProt P00784); assay: Inhibition of papaya papain
T1 sequence (whole entry): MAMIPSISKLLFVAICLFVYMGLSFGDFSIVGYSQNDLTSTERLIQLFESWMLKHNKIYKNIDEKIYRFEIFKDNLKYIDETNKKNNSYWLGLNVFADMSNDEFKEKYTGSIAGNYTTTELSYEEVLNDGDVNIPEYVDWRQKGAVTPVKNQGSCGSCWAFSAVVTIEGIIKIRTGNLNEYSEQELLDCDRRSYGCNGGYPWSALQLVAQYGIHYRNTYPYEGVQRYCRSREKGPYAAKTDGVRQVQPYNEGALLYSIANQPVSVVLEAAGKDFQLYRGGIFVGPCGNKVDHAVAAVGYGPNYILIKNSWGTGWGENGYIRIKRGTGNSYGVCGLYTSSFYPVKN

P388 = assay: Cytotoxicity against mouse P388 cells; assay type: functional, cell-based

Measured: Activity

Plasminogen (Homo sapiens), sequence (P00747 97-580 limits assumed): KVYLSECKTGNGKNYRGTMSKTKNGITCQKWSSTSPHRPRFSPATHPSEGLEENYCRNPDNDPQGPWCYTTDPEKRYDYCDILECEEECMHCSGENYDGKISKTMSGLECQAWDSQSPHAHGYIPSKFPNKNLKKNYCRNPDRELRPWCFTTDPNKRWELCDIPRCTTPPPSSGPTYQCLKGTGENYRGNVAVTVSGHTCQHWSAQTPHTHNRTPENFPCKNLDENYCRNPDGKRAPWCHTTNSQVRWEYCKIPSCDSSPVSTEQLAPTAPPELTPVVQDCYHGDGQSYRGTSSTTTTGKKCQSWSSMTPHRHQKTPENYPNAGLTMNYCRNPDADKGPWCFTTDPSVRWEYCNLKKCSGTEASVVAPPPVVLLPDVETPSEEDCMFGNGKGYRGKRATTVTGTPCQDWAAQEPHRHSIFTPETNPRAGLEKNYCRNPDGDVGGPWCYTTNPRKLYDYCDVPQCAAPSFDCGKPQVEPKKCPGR
Plasminogen (Homo sapiens), sequence (P00747 581-810 limits assumed): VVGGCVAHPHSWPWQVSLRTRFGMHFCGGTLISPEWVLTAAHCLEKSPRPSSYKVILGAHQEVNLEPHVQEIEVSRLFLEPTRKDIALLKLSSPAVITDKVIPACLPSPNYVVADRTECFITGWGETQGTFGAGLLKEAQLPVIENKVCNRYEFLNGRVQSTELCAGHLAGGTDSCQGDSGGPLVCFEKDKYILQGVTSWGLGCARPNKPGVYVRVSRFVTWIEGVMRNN
Cytosol aminopeptidase (Homo sapiens), sequence (P28838 whole entry): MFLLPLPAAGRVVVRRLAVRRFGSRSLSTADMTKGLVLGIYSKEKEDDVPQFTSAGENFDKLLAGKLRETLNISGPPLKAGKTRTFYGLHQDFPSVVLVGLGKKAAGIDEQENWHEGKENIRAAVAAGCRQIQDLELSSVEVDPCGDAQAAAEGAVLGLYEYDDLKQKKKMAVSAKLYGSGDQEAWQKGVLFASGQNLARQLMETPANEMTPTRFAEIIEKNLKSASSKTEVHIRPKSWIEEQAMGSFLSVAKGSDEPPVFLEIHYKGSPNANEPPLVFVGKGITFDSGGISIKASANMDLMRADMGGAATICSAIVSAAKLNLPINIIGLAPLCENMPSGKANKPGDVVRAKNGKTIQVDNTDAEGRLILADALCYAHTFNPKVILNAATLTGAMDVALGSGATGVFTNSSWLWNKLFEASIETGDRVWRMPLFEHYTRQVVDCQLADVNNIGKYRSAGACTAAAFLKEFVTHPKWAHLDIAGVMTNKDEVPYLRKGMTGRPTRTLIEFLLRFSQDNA

CC(C)=CCOc1ccc(C[C@@H]2NC(=O)[C@@H]3CCCN3C(=O)[C@H](CC(N)=O)NC(=O)[C@H](Cc3ccccc3)NC(=O)[C@H](Cc3ccccc3)NC(=O)[C@H](CCC(=O)O)NC(=O)CNC(=O)[C@H]([C@@H](C)O)NC(=O)CNC2=O)cc1 (cyclo(EFFNPY(Prenyl)GTG))
inactive: all assays above

CC[C@H](C)[C@@H]1NC(=O)[C@@H]2CCCN2C(=O)[C@H](Cc2ccc(O)cc2)NC(=O)[C@H](CC(C)C)NC(=O)[C@H](Cc2ccc(OCC=C(C)C)cc2)NC(=O)[C@@H]2CCCN2C(=O)[C@H](CC(N)=O)NC1=O (cyclo(INPY(Prenyl)LYP))
inactive: all assays above
